Source: PMC2821522 (Journal of Clinical Immunology, 2009)
Read-outs that look alike come from different tables or passages of the source.

Legend:
Type in all cases: cell-based, human
[1] = system: PBMC (immune recognition, gamma interferon-secreting T cells)
CD4+ T cells = assay: Flow cytometry / intracellular cytokine staining, CD4+ T cells; details: sarcoidosis subjects, in words, Fig. 1
[2] = system: expanded sarcoidosis CD4+ T cell lines; antigen presented by Sweig cells (HLA DRB1*1101 and DRB3*0202)

Sequence: WTNTPTKWDNSFLEI [katG peptide 13]
- subjects recognizing the peptide [1]: Seven of the eight
- subjects recognizing the peptide ([1]; PPD− control subjects): none
- CD4+ T cell response (CD4+ T cells; listed as katG): CD4+ T cell recognition of katG was also detected
- CD4+ T cell response (CD4+ T cells; listed as katG peptide): strong CD4+ T cells response
- immune response (CD4+ IFN-γ) [2]: minimal response
- immune response (CD4+ IFN-γ) ([2]; katG-expanded line of Sarcoidosis 6, with Sweig cells, Fig. 4, listed as katG peptides): strong CD4+ responses
